Laboratory results from patent US8609695B2, “Methods of treating and/or suppressing insulin resistance” (Endorecherche, Inc., priority 1999, dated 2013).

Legend:
[1] = test system: ovariectomized female rats; assay: SERM comparison, energy balance and lipid-lipoprotein metabolism (Example 10); assay type: in vivo, Rattus norvegicus; details: OVX rats, 20 days
In short: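 Ovariectomized rats on a high-carbohydrate diet dosed by oral gavage 0.5 mg/rat in 0.4% methylcellulose for 20 days; sham-operated group included. Body weight and food intake every 2 days, DEXA body fat on Day 17. Necropsy on day 21, ~24 h post-dose after 6 h fast: serum lipids, glucose, insulin, leptin, tissue weights.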

[2] = test system: ovariectomized female rats; assay: Uterine weight, fat and lipid, 20-day treatment (Example 13); assay type: in vivo, Rattus norvegicus; details: 20 days
Method: The objective of this study was to compare the effect on uterine, weight, fat and blood lipids following treatment with EM-652.HCl, ERA-923 and lasofoxifene, administered alone or in combination with EM-652.HCl, to ovariectomized female rats. For this purpose, each compound was administered orally for 20 days to ovariectomized female rats and at the end of the treatment period, the uterus and fat were collected and weighed.
d) Diet: • Certified Rodent feed (Lab Diet #5002, pellets) and tap water were provided ad libitum. Randomization:
Seventy rats were separated into 7 groups of 9 to 11 animals for conduct of the study outlined below:
Animals from groups 2 to 9 were ovariectomized under Isoflurane-induced anesthesia on Day 7 of the study.
The vehicle or tested compounds were given as suspension in 0.4% methylcellulose by oral gavage (0.5 ml/gavage/rat) from Day 2 to Day 21 of the study.
Rats were weighed on Study Day 1 and at the necropsy (SD 22).
Approximately 24 hours after the last dosing, overnight fasted rats under Isoflurane-induced anesthesia were killed by exsanguination at the abdominal aorta.
Uteri and retroperitonal adipose tissue were removed and weighed.

[3] = test system: human breast cancer MCF-7 cells; assay: Proliferation of MCF-7 cell line, DNA content (Example 12); assay type: cell-based; details: MCF-7 cells
Description: MCF-7 human breast cancer cells were obtained from the American Type Culture Collection # HTB 22 at passage 147 and routinely grown in phenol red-free Dulbecco's Modified Eagle's-Ham's F12 medium, the supplements mentioned above and 5% FBS. The MCF-7 human breast adenocarcinoma cell line was derived from the pleural effusion of a patient. MCF-7 cells were used between passages 148 and 165 and subcultured weekly.
Cells in their late logarithmic growth phase were harvested with 0.1% pancreatin (Sigma) and resuspended in the appropriate medium containing 50 ng bovine insulin/ml and 5% (v/v) FBS treated twice with dextran-coated charcoal to remove endogenous steroids. Cells were plated in 24-well Falcon plastic culture plates (2 cm2/well) at the indicated density and allowed to adhere to the surface of the plates for 72 h. […] Control cells received only the ethanolic vehicle (0.1% EtOH,v/v). Cells were incubated for the specified time intervals with medium changes at 2- or 3-day intervals. Cell number was determined by measurement of DNA content.
Dose-response curves as well IC50 values were calculated using a weighted iterative nonlinear least-squares regression. All results are expressed as means±SEM.

[4] = high carbohydrate diet, 0.5 mg/rat oral gavage
[5] = OVX rats, commercial rodent diet, 0.5 mg oral, EM-652.HCl 2.5 mg in combinations

Cc1c(-c2ccc(O)cc2)n(Cc2ccc(OCCN3CCCCC3)cc2)c2ccc(O)cc12 [ERA-923]
Serum insulin (in words) ([1]; 0.5 mg/rat): decreased | Brown adipose tissue Lipoprotein lipase activity [1, 4]: 1017 ± 83 μU/g protein | Brown adipose tissue weight [1, 4]: 0.350 ± 0.019 g | Cumulative food intake [1, 4]: 347 ± 9 g | Serum glucose [1, 4]: 16.5 ± 2.7 mmol/L | Serum insulin [1, 4]: 0.113 ± 0.029 nmol/L | Serum leptin [1, 4]: 2.12 ± 0.44 ng/mL | Serum total cholesterol [1, 4]: 1.66 ± 0.16 mmol/L | Serum triglycerides [1, 4]: 0.93 ± 0.24 mmol/L | Soleus muscle Lipoprotein lipase activity [1, 4]: 11.7 ± 1.9 μU/g protein | Soleus muscle weight [1, 4]: 0.100 ± 0.004 g | Total weight [1, 4]: 260 ± 5 g | VastusLateralis muscle weight [1, 4]: 0.993 ± 0.33 g | White adipose tissue inguinal Lipoprotein lipase activity [1, 4]: 766 ± 173 μU/g protein | White adipose tissue inguinal weight [1, 4]: 0.326 ± 0.042 g | White adipose tissue retroperitoneal Lipoprotein lipase activity [1, 4]: 1750 ± 140 μU/g protein | White adipose tissue retroperitoneal weight [1, 4]: 1.27 ± 0.15 g | OVX-induced increase in total serum cholesterol levels ([2]; 0.5 mg): completely prevented | effect on uterine weight compared to the OVX control animals [2]: no effect | prevention of body weight increase induced by ovariectomy ([2]; OVX rats, 0.5 mg): 59% | Cholesterol [2, 5]: 1.20 ± 0.10 mmol/L | Final Body Weight [2, 5]: 248 ± 5 g | Uterine Weight [2, 5]: 162.6 ± 5.2 mg | EC50 ([3]; Homo sapiens, MCF7, text summary of table 12, read-out: EC50 of inhibition (antiestrogen activity)): 3.7 nM | Stimulation of DNA by tested compounds % of 1 nM E2 stimulation ([3]; absence of E2): N.S.
